# Assay results reported in patent publication US20080269121A1, “Methods and Compositions Involving A1c Subunit of L-Type Calcium Channels in Smooth Muscle Cells” (The Board of Regents of the University of Texas System, priority 2005, published 2008).
# Entries after “also recorded” stand apart in the source; their conditions may differ.
# What was measured:
# p38 = experiment: MAP kinase phosphorylation: p38; format: cell-based
# HCCSMC = experiment: Cytosolic free Ca^2+ measurement (fura-2 AM) in HCCSMC; format: cell-based, human; conditions: treatment for 24 h, by
# Experimental: Cytosolic free Ca^2+ measurement: Cytosolic calcium level ([Ca^2+]i) was measured in a wide-field imaging system at the UTMB core Optical Imaging Laboratory using the Ca^2+-sensitive fluorescent dye fura 2-AM (Molecular Probes, Eugene, Oreg.). HCCSMC cultured on cover slips were incubated with 1 μM fura 2-AM for 45 min at 37° C. in a modified HEPES buffer (pH 7.4) containing (in mM): 10 HEPES, 125 NaCl, 5 KCl, 1 CaCl2, 0.5 MgSO4, 5 glucose. Cover slips with cells were washed with fresh medium and mounted on the stage of a Nikon TE200 inverted microscope (Nikon Instruments, Lewisville, Tex.) equipped with a CoolSNAP HQ cooled-CCD monochrome digital camera (Roper Scientific, Tucson Ariz.). Cells were examined under a super-fluor 20×0.75 NA objective during exposure to alternating 340 and 380 nm excitation light (DG4 illuminator system, Sutter Instrument, Novato, Calif.), and the intensity of light emission at 510 nm was measured. The light intensities and their ratio, F340/F380, which reflects changes in Ca^2+ concentration, were followed simultaneously in several single cells in the field. The acquisition process was controlled by the Metafluor image acquisition software (Universal Imaging Corp. Downingtown, Pa.).
# p65 subunit = experiment: Nuclear abundance and binding of NF-κB p65 in HCCSMC; format: cell-based, human
# Experimental: Cytoplasmic and nuclear protein, and RNA extraction: Cytoplasmic and nuclear proteins were prepared as described earlier by Shi et al. Briefly, the cells were washed twice with phosphate-buffered saline solution and then with buffer A (in mM: 10 HEPES, 1.5 MgCl2, 10 KCl, 0.5 dithiothreitol, 0.5 phenylmethylsulfrenyl fluoride [PMSF]; 10 ng/mL leupeptin, and 10 ng/mL aprotinin). The cells were resuspended in 25 μL of buffer A containing 0.25% NP-40 and incubated at 4° C. for 10 minutes. After centrifugation at 12,000 g for 10 minutes, the supernatant was collected as cytoplasmic extract. The nuclear pellet was resuspended in 20 μL of buffer C (in mM: 20 HEPES, […], 1.5 MgCl2, 0.2 ethylenediaimetetraacetic acid (EDTA), 0.5 DTT, 0.5 PMSF; 24% glycerol, 10 ng/mL leupeptin, and 10 ng/mL aprotinin) and incubated on ice with frequent vortexing for 15 minutes. The samples were centrifuged at 14,000 g for 10 minutes, and the supernatant (nuclear extract) was transferred to a fresh tube with 5 volumes of buffer D (in mM: 20 HEPES, 0.2 EDTA, 50 KCl, 0.5 DTT, 0.5 PMSF; 20% glycerol, 10 ng/mL leupeptin, and 10 ng/mL aprotinin). The protein concentration was determined by using the Bio-Rad assay kit (Bio-Rad Laboratories, Hercules, Calif.).
# Electrophoretic mobility shift assay. […]
# CREB = CREB phosphorylation in HCCSMC; format: cell-based, human
# Experimental: Western immunoblotting. Each lane is loaded with 10 μg protein and size-separated on a 10% SDS polyacrylamide gel. After blotting, the nitrocellulose membranes are blocked with 10% non-fat dried milk at 4° C. overnight. The blots are incubated with appropriate dilution of the antibody at 4° C. overnight and appropriate dilution of designated secondary antibody at room temperature for 1 h. β-actin is used as internal control.
# [1] = test system: TNBS-induced inflammation; format: in vivo, rat; conditions: intact rat model, treatment through osmotic pumps, expected
# Experimental: (§1) Muscle bath experiments. Pure circular muscle strips (2 mm×10 mm) are prepared from resected human colon segments. The strips are mounted in 5 ml baths filled with carbonated Krebs solution (in mM: 118 NaCl, 4.7 KCl, 2.5 CaCl2, 1 NaH2PO4, 1-2 MgCl2, 11 D-glucose, and 25 NaHCO3) at 37° C. (Siebenlist et al., 1994; Barnes and Karin, 1997). The muscle strips are equilibrated for 1 h at 1 g tension and then stretched until maximal response is obtained to 10^−4 m ACh. The bathing solution is replaced every 15 min. Contractions are measured by force transducers and analyzed by DATAQ (Akron, Ohio) software.
# Vertebrate Animals. Sprague-Dawley rats were used. For tissue harvesting, the rats were anesthetized with 5% isoflurame in 100% oxygen for 5 to 7 minutes followed by i.p. injection of 50 mg/kg ketamine.
# Osmotic pumps were implanted under anesthesia as discussed above. Lateral surface of left back were shaven and cleaned with betadine. A 2 cm incision was made in the skin and subcutaneous facia and muscle separated. The micro-osmotic pump were implanted intramuscularly and the incision was closed.
# Colonic inflammation was induced by intraluminal injection of 30 mg/kg or 130-mg/kg trinitrobenzene sulfonic acid (TNBS) under anesthesia, as described above.
# CRE1 and CRE2 = experiment: Oligonucleotide agarose conjugate pull-down of CREB; format: cell-based, human; conditions: FIG. 10
# [2] = test system: TNBS (trinitrobenzene sulfonic, acid)-induced colitis; conditions: systemic bolus injections, mouse; cited from earlier work
# [3] = test system: human colonic circular muscle strips; experiment: Muscle bath: contractile response of human colonic circular muscle strips; format: cell-based
# Experimental: as §1
# The protocol for transfection of sense and antisense oligonucleotides in freshly obtained muscle strips was similar to that in HCCSMC. The circular muscle layer was isolated from the fall thickness human colon, and sliced into 2 mm×10 mm muscle strips. The strips were incubated in RPMI 1640 without serum. The sense and antisense oligonucleotides (10 μM) were added into the medium for 24 h before incubation with 20 ng/mL TNFα for 24 h.
substance,measurement,setting,value
vasoactive intestinal polypeptide [VIP],phosphorylation of p38,p38,time-dependently dephosphorylated
same,Ca^2+ influx,HCCSMC,enhanced Ca^2+ influx
same,"abundance of p65 in the nucleus, VIP and TNFα versus TNFα alone",p65 subunit,did not seem to be different
same,duration of CREB phosphorylation,CREB,lasted about one hour
same,phosphorylation of CREB,CREB; HCCSMC,phosphorylated upon exposure to VIP; also recorded: transient phosphorylation
same,effect on suppression of contractility due to TNBS-induced inflammation,[1],partially inhibit the suppression of contractility
same,CREB binding to CRE1 and CRE2,CRE1 and CRE2,more CREB binds at both CRE1 and CRE2
same,MPO (myeloperoxidase) activity,[2],did not completely suppress
same,TNBS-induced diarrhea,[2],abrogated TNBS-induced diarrhea
same,macroscopic and microscopic inflammation,[2],reduced macroscopic and microscopic inflammation
same,effect on TNFα suppression of contractile response to ACh,"[3]; muscle strips, treatment before/with TNFα",significantly reduces the suppression; also recorded: partially reversed the suppression
same,contractile response of circular muscle strips to ACh,"[3]; strips incubated 24 h, organ bath",enhanced the contractile response to ACh and KCl; also recorded: increased their contractile response to ACh; also recorded: enhanced it
